Test results published in patent publication US10894051B2, “Method of treating metastatic cancer in a subject” (City University of Hong Kong, priority 2017, dated 2021).

Columns and labels:
cancer cell = assay: colony formation from single cancer cell; type: cell-based; details: 2 μM, 5 μM and 10 μM
Experimental: (§1) HeLa cells, A549 cells, CNE-1 cells and human liver cancer stem cells (hLCSCs) were incubated and treated with vacuolin-1 at different concentrations, namely 2 μM, 5 μM and 10 μM.

A549 cells = assay: trans-well migration assay; type: cell-based; details: 2 μM, 5 μM and 10 μM
Experimental: as §1

CNE-1 cells = assay: trans-well migration assay; type: cell-based; details: 2 μM, 5 μM and 10 μM
Experimental: as §1

HeLa cells = assay: trans-well migration assay; type: cell-based; details: 2 μM, 5 μM and 10 μM
Experimental: as §1

[1] = test system: human liver cancer stem cells (hLCSCs); assay: trans-well migration assay; type: cell-based; details: 2 μM, 5 μM and 10 μM
Experimental: as §1

hLCSCs [2] = assay: matrigel invasion assay; type: cell-based, human
Experimental: as §1

hLCSCs [3] = assay: tumor sphere formation; type: cell-based, human
focal adhesion (FA) = assay: FA disassembly after nocodazole release (Vinculin staining); type: cell-based
Experimental: (§2) Autophagy or endosomal trafficking contributes to the migration and invasion of tumor cells by changing the microtubule dynamics, or presentation of surface proteins, or secretion of extracellular matrix (ECM) proteins. Also, focal adhesion (FA) dynamics is a key process for cell migration. In this regard, the effects of vacuolin-1 on the spatio-temporal regulation of FA dynamics were assessed. Phospho-Y397 FAK immunoblot was used to assess the effects of vacuolin-1 on phosphorylation and dephosphorylation dynamics of FAK. Cells were also treated with nocodazole, followed by nocodazole removal and vacuolin-1 incubation, stained with antibodies against Vinculin and Phalloidiin for FA and stress fiber, respectively.
With reference to FIGS. 1E and 1F, cells were treated with nocodazole so as to depolymerize microtubules for inducing and stabilizing FA formation, showing by the puncta staining pattern of Vinculin (green colour), whereas removal of nocodazole led to microtubule regrowth resulting in decreasing the number of FA in a time-dependent manner until the reformation of FAs. […] Focal adhesion kinase (FAK) phosphorylation and dephosphorylation on Y397 is another readout of FA dynamics.

[4] = test system: Focal adhesion kinase (FAK); assay: phospho-Y397 FAK immunoblot; type: cell-based; details: phosphor-Y397 FAK immunoblot
Experimental: as §2
Consistently, with reference to FIG. 1D, vacuolin-1 treatment of cells abolished phosphorylation and dephosphorylation dynamics of FAK as assessed by the phosphor-Y397 FAK immunoblot analysis.

cancer cells = assay: cytotoxicity in vitro; type: cell-based
LCSCs = assay: xenograft tumor-seeding of vacuolin-1 pretreated LCSCs; type: in vivo, nude mice; details: for tumor incidence / tumor volume: pretreated 10 μM 48 hours, after 4 weeks
Experimental: Nude mice were divided into 4 control groups and 4 treatment groups, each group having 6 nude mice. With reference to FIG. 2A, LCSCs were pretreated with DMSO or 10 μM vacuolin-1 for 48 hours before injecting to nude mice via subcutaneous injection. After 4 weeks, the tumor incidence in mice was measured to determine whether the pretreatment of vacuolin-1 can inhibit the invasion cancer cells in mice.

tfLC3B-expressing LCSCs = assay: metastasis of tail vein injected LCSCs; type: in vivo; details: 2.5 mg/kg IP 3 times per week; 8 weeks; nude mice
Experimental: With reference to FIG. 3A, briefly, 5×10^5 tfLC3B-expressing LCSCs were injected via tail vein into nude mice. 24 hours after the tail vein injection, intraperitoneal (IP) injection of vacuolin-1 (2.5 mg/kg) were conducted 3 times per week. After 8 weeks, all mice were sacrificed. Lungs were excised, and fixed in the 4% paraformaldehyde in PBS. Metastatic nodules were counted in the excised lungs and hemotoxylin/eosin (H&E) were then performed.

[5] = test system: human breast cancer cells CA1a; assay: metastasis of tail vein injected CA1a cells; type: in vivo; details: 2.5 mg/kg IP 3 times per week; 8 weeks; nude mice
Experimental: Similarly, the anti-metastasis effects of vacuolin-1 in human breast cancer cells CA1a in xenograft mouse models were evaluated. With reference to FIG. 4A, briefly, 5×10^5 Fluc-mCherry-expressing CA1a cells were injected by tail vein into nude mice. 24 hours after the tail vein injection, IP injections of vacuolin-1 (2.5 mg/kg) and DMSO-containing PBS were conducted 3 times per week. The mice where imaged by the Cri Maestro 2 weekly to assess the tumor progression. After 8 weeks, all mice were sacrificed.

[6] = test system: mouse breast carcinoma 4TO7; assay: metastasis of tail vein injected 4TO7 cells; type: in vivo, normal BALBc mice; details: 2.5 mg/kg daily IP; BALBc mice
Experimental: To exclude the effects of immunodeficiency (nude mice) on the drug effects, another metastasis tumor model was established by tail vein injection of mouse breast carcinoma 4TO7 into normal BALBc mice followed by daily IP injections of vacuolin-1 (2.5 mg/kg) 24 hour later, as illustrated in FIG. 5A.

[7] = test system: Fluc-mCherry-expressing 4TO7 cells; assay: metastasis of tail vein injected Fluc-mCherry 4TO7 cells; type: in vivo; details: tail vein injection; 2.5 mg/kg IP; 2 weeks; normal mice
Experimental: Since 4TO7 cells are more metastatic than LCSCs, Fluc-mCherry-expressing 4TO7 cells were injected into normal mice via tail vein injection followed by IP injections of vacuolin-1 (2.5 mg/kg) 24 hour later, as illustrated in FIG. 6A. The mice were imaged by the Cri Maestro 2 weekly to assess the tumor progression. Mice were sacrificed after 2 weeks, and the number of tumor colonies in lung was counted.

[8] = test system: Fluc-mCherry-expressing 4TO7 cells; assay: metastasis of fat pad injected Fluc-mCherry 4TO7 cells; type: in vivo; details: fat pad injection; 2.5 mg/kg IP; 4 weeks; normal female mice
Experimental: The anti-metastasis effects of vacuolin-1 in another metastasis model have also been evaluated. With reference to FIG. 7A, Fluc-mCherry-expressing 4TO7 cells were injected into the fat pad of normal female mice followed by IP injections of vacuolin-1 (2.5 mg/kg) 24 hour later. The mice were imaged by the Cri Maestro 2 weekly to assess the tumor progression. Mice were sacrificed after 4 weeks, and the number of tumor colonies in lung was counted.

[9] = acute toxicity via oral route; type: in vivo; details: single dose 250 mg/kg oral
Experimental: In particular, vacuolin-1 was administered at a single dose of 250 mg/kg to young adult male and female mice via oral route, and DMSO-containing PBS was administered to another set of male and female mice via oral route as a control group. […] During the 2 weeks, the body weight was also measured. After the 2 weeks, organs were excised for histopathology evaluation.
Referring to FIG. 8B, all tissues or organs in vacuolin-1 treated mice were normal in histological point of view as compared to control groups.

sub-chronic toxicity = type: in vivo; details: 5 mg/kg daily intraperitoneal; 3 months; mice
Experimental: As for the sub-chronic toxicity of vacuolin-1, 5 mg/kg vacuolin-1 was administered daily to young adult male and female mice via intraperitoneal route for 3 months, and DMSO-containing PBS was administered to another set of male and female mice as a control group. The body weight of the mice was determined every week. […] After the 3 months, organs were excised for histopathology evaluation.

[10] = 1*10^4 LCSCs injected subcutaneously
[11] = 1*10^5 LCSCs injected subcutaneously
[12] = 1*10^6 LCSCs injected subcutaneously

Question: Which “size and number of colonies generated from single cancer cell” value (cancer cell) does the source give for `Ic1cccc(/C=N/Nc2nc(N3CCOCC3)nc(N(c3ccccc3)c3ccccc3)n2)c1` [vacuolin-1] here?
Answer: Its value is “dramatically reduced”.

Question: And the cell migration (A549 cells)?
Answer: The cell migration was “significantly inhibited”.

Question: And the cell migration (CNE-1 cells)?
Answer: Its cell migration is “significantly inhibited”.

Question: And the cell migration (HeLa cells)?
Answer: The cell migration was “significantly inhibited”.

Question: What about the cell migration [1] of the same compound?
Answer: The cell migration was “significantly inhibited”.

Question: And the cell invasion (hLCSCs [2])?
Answer: The cell invasion was “significantly inhibited”.

Question: What about the tumor sphere formation (hLCSCs [3]) of the same compound?
Answer: Its tumor sphere formation is “significantly inhibited”.

Question: And the FA disassembly (focal adhesion (FA))?
Answer: Its FA disassembly is “markedly inhibited”.

Question: And the “phosphorylation and dephosphorylation dynamics of FAK” value [4]?
Answer: Its value is “abolished”.

Question: What about the cytotoxicity (cancer cells) of the same compound?
Answer: Its cytotoxicity is “no cytotoxicity”.

Question: And the tumor incidence (LCSCs; 1*10^3 LCSCs injected subcutaneously)?
Answer: Its tumor incidence is 0/6.

Question: And the tumor incidence (LCSCs; [10])?
Answer: The tumor incidence was 2/6.

Question: And the tumor volume (LCSCs; [10])?
Answer: The tumor volume was “(1069 mm^3)”.

Question: What about the tumor incidence (LCSCs; [11]) of the same compound?
Answer: The tumor incidence was 2/6.

Question: And the tumor volume (LCSCs; [11])?
Answer: The tumor volume was “(1184 mm^3)”.

Question: And the tumor incidence (LCSCs; [12])?
Answer: Its tumor incidence is 5/6.

Question: What about the tumor volume (LCSCs; [12]) of the same compound?
Answer: The tumor volume was “(1521 mm^3)”.

Question: And the “tumor-seeding ability of LCSC cells” value (LCSCs; vacuolin-1 pretreatment, nude mice)?
Answer: Its value is “markedly inhibited”.

Question: What about the “metastasis of LCSCs (tumor nodules in lung, lung histology)” value (tfLC3B-expressing LCSCs) of the same compound?
Answer: Its value is “significantly inhibited”.

Question: What about the “metastasis of CA1a cells” value [5] of the same compound?
Answer: The value was “significantly inhibited”.

Question: And the “anti-metastatic effects on 4TO7 cells (tumor nodules in lungs, lung histology)” value [6]?
Answer: Its value is “striking anti-metastatic effects”.

Question: And the “metastasis of 4TO7 cells” value [7]?
Answer: Its value is “markedly inhibited”.

Question: And the “metastasis of 4TO7 cells” value [8]?
Answer: The value was “markedly inhibited”.

Question: What about the behavior abnormality ([9]; 2 weeks) of the same compound?
Answer: The behavior abnormality was “no signs of behavior abnormality”.

Question: What about the mouse weight gain ([9]; 2 weeks) of the same compound?
Answer: Its mouse weight gain is “no effects”.

Question: What about the “histology of tissues or organs” value ([9]; after 2 weeks) of the same compound?
Answer: Its value is “normal”.

Question: And the acute toxicity ([9]; mice)?
Answer: The acute toxicity was “no acute toxicity”.

Question: What about the sub-chronic toxicity (sub-chronic toxicity) of the same compound?
Answer: Its sub-chronic toxicity is “no sub-chronic toxicity”.
